This note sets out measurements from ChEMBL document CHEMBL4017547, “Influences of Histidine-1 and Azaphenylalanine-4 on the Affinity, Anti-inflammatory, and Antiangiogenic Activities of Azapeptide Cluster of Differentiation 36 Receptor Modulators” (J Med Chem, 2017).

Activity calls are given as the source filed them. The rule behind the calls is not given here.

Data set [1] addresses Platelet glycoprotein 4 (Mus musculus) (UniProt Q08857). Briefly: Modulation of CD36 in mouse […] cells assessed as inhibition of R-FSL1-induced NO over production at 1 uM preincubated for 1 hr followed by overnight R-FSL1 stimulation by DAN-fluorescence assay relative to control. Type of data set: cell-based.
Data set [2] has the same target. Briefly: Modulation of CD36 in mouse J774A.1 cells assessed as inhibition of R-FSL1-induced NO over production at 1 uM preincubated for 1 hr followed by overnight R-FSL1 stimulation by DAN-fluorescence assay relative to control. Type of data set: cell-based.
The target in the next data set is Platelet glycoprotein 4 (Rattus norvegicus, UniProt Q07969). The data set is described as follows: Inhibition of photoactivatable [125I]-Tyr-Bpa-Ala-hexarelin binding to CD36 in Sprague-Dawley rat heart membranes after 60 mins by SDS-PAGE analysis. Type of data set: cell membranes, Membrane.
Data set [3] addresses Platelet glycoprotein 4 (Rattus norvegicus) (UniProt Q07969). Briefly: Inhibition of photoactivatable [125I]-Tyr-Bpa-Ala-hexarelin binding to CD36 in Sprague-Dawley rat heart membranes after 60 mins by SDS-PAGE analysis relative to H-His-D-Trp-Ala-aza(3-hydroxy)Phe-D-Phe-Lys-NH2. Format: cell membranes. As to conditions: Membrane.
Data set [4] can be described thus: Pro-angiogenic activity in mouse sclera/choroid/retinal pigment epithelium complex assessed as increase in microvascular sprouting at 1 uM after 24 hrs by microscopic analysis. Format: ADME.

Chain of Platelet glycoprotein 4 (Mus musculus) (Q08857 whole entry): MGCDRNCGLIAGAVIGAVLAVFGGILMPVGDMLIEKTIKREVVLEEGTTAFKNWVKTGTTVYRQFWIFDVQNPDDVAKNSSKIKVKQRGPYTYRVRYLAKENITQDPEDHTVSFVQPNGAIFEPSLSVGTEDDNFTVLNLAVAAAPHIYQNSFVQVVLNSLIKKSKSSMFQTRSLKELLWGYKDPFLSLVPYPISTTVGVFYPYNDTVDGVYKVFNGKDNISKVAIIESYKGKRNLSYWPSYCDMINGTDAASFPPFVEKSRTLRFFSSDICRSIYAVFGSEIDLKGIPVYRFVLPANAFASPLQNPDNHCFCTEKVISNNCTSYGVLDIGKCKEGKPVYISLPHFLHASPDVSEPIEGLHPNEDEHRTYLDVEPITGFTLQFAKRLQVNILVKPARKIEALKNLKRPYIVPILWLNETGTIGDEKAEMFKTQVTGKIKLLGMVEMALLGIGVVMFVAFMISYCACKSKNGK
Chain of Platelet glycoprotein 4 (Q07969 whole entry): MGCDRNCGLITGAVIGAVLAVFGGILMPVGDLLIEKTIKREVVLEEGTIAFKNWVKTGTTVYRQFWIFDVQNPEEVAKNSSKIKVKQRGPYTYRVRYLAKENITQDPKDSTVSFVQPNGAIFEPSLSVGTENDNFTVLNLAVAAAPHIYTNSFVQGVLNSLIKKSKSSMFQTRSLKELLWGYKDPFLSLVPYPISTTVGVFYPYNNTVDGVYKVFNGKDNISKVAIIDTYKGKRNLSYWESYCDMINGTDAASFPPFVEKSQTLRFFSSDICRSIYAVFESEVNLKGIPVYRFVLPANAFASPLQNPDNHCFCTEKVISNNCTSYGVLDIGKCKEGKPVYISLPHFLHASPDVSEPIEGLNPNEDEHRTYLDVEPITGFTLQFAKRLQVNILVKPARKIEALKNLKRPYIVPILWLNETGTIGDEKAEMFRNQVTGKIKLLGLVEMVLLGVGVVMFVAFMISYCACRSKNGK
Chain of Platelet glycoprotein 4 (Rattus norvegicus) (Q07969 whole entry): as above

Take `C[C@H](NC(=O)[C@@H](Cc1c[nH]c2ccccc12)NC(=O)[C@@H](N)Cc1cnc[nH]1)C(=O)NN(Cc1ccc(Cl)cc1)C(=O)N[C@H](Cc1ccccc1)C(=O)N[C@@H](CCCCN)C(N)=O`: the inhibition result in data set [1] and in data set [2] was “Active” throughout. The IC50 (in general, the concentration that inhibits the measured activity by half) at Platelet glycoprotein 4 came out at 8.36 µM. Also, the fold change (FC) in data set [3] amounted to 3.4. For the same molecule, in data set [4], the Activity entry is on record as “Toxic”.
